ChEMBL document CHEMBL3217499, “Membrane disrupting antimicrobial peptide dendrimers with multiple amino termini” (Medchemcomm, 2012)
In brackets after ≈: the same amount, converted by molar mass. Activity calls are given as the source filed them. The rule behind the calls is not given here. Where a SMILES comes first, the peptide text is derived from it. Bridges are numbered along the chain shown (N, C = ends). Roman numbers before positions name the chains, in order. Side-chain parts run from the residue outwards. The star is where a group is joined. X2 = CC[C@H](C)[C@H](N)C(=O)NCCCC[C@H](NC(=O)[C@@H](N)[C@@H](C)CC)C(=O)*

Experiments:
Pseudomonas aeruginosa [1] = assay: Antibacterial activity against Pseudomonas aeruginosa ATCC 27853 by broth microdilution assay; format: functional
Escherichia coli [2] = assay: Antibacterial activity against Escherichia coli DH5[alpha] after 18 to 24 hrs by broth microdilution assay; format: functional
Staphylococcus aureus [3] = assay: Antibacterial activity against Staphylococcus aureus ATCC 29213 by broth microdilution assay; format: functional
Enterococcus faecium [4] = assay: Antibacterial activity against Enterococcus faecium Van BE38-10 by broth microdilution assay; format: functional
Pseudomonas aeruginosa [5] = assay: Antibacterial activity against Pseudomonas aeruginosa PAO1 after 18 to 24 hrs by broth microdilution assay; format: functional
Enterococcus faecalis [6] = assay: Antibacterial activity against Enterococcus faecalis Van BE80-8 by broth microdilution assay; format: functional
Escherichia coli [7] = assay: Antibacterial activity against Escherichia coli ATCC 25922 by broth microdilution assay; format: functional
Enterococcus faecalis [8] = assay: Antibacterial activity against Enterococcus faecalis ATCC 29212 by broth microdilution assay; format: functional
Escherichia coli [9] = assay: Antibacterial activity against Escherichia coli DC2 by broth microdilution assay; format: functional
Pseudomonas aeruginosa [10] = assay: Antibacterial activity against Pseudomonas aeruginosa K799/WT by broth microdilution assay; format: functional
Staphylococcus aureus [11] = assay: Antibacterial activity against Staphylococcus aureus 887 by broth microdilution assay; format: functional
Bacillus subtilis = assay: Antibacterial activity against Bacillus subtilis BR151 after 18 to 24 hrs by broth microdilution assay; format: functional
Pseudomonas aeruginosa [12] = assay: Antibacterial activity against Pseudomonas aeruginosa K799/61 by broth microdilution assay; format: functional
Escherichia coli [13] = assay: Antibacterial activity against Escherichia coli HB101 (PAT 266) by broth microdilution assay; format: functional
Pseudomonas aeruginosa [14] = assay: Antibacterial activity against Pseudomonas aeruginosa PAO1 HS by broth microdilution assay; format: functional
[15] = system: Staphylococcus epidermidis; assay: Antibacterial activity against Staphylococcus epidermidis J147 by broth microdilution assay; format: functional
Staphylococcus aureus [16] = assay: Antibacterial activity against methicillin-resistant Staphylococcus aureus 42080 by broth microdilution assay; format: functional
Staphylococcus aureus [17] = assay: Antibacterial activity against Staphylococcus aureus ATCC 25923 by broth microdilution assay; format: functional
Enterococcus faecium [18] = assay: Antibacterial activity against Enterococcus faecium ATCC 19434 by broth microdilution assay; format: functional
Pseudomonas aeruginosa [19] = assay: Antibacterial activity against Pseudomonas aeruginosa 8S/H by broth microdilution assay; format: functional
[20] = Hemolytic activity in human RBC after 4 hrs; format: ADME, cell-based; settings: erythrocyte
[21] = system: Staphylococcus epidermidis; assay: Antibacterial activity against Staphylococcus epidermidis ATCC 14990 by broth microdilution assay; format: functional
Lipid bilayer = assay: Induction of membrane disruption in synthetic unilamellar vesicles assembled from Escherichia coli lipids at 25 ug/ml after 16 hrs by negative-stain transmission electron microscopic analysis; format: functional

Structure (SMILES)	MIC (Pseudomonas aeruginosa [1])	MIC (Escherichia coli [2])	MIC (Staphylococcus aureus [3])	MIC (Enterococcus faecium [4])	MIC (Pseudomonas aeruginosa [5])	MIC (Enterococcus faecalis [6])	MIC (Escherichia coli [7])	MIC (Enterococcus faecalis [8])	MIC (Escherichia coli [9])	MIC (Pseudomonas aeruginosa [10])	MIC (Staphylococcus aureus [11])	MIC (Bacillus subtilis)	MIC (Pseudomonas aeruginosa [12])	MIC (Escherichia coli [13])	MIC (Pseudomonas aeruginosa [14])	MIC [15]	MIC (Staphylococcus aureus [16])	MIC (Staphylococcus aureus [17])	MIC (Enterococcus faecium [18])	MIC [21]	also measured
CC[C@H](C)[C@H](N)C(=O)NCCCC[C@H](NC(=O)[C@@H](N)[C@@H](C)CC)C(=O)N[C@H](C(=O)NCCCC[C@H](NC(=O)[C@@H](NC(=O)[C@H](CCCCNC(=O)[C@@H](N)[C@@H](C)CC)NC(=O)[C@@H](N)[C@@H](C)CC)[C@@H](C)CC)C(=O)N[C@@H](Cc1ccccc1)C(=O)NCCCC[C@H](NC(=O)[C@H](Cc1ccccc1)NC(=O)[C@H](CCCCNC(=O)[C@@H](NC(=O)[C@H](CCCCNC(=O)[C@@H](N)[C@@H](C)CC)NC(=O)[C@@H](N)[C@@H](C)CC)[C@@H](C)CC)NC(=O)[C@@H](NC(=O)[C@H](CCCCNC(=O)[C@@H](N)[C@@H](C)CC)NC(=O)[C@@H](N)[C@@H](C)CC)[C@@H](C)CC)C(=O)N[C@@H](CCCCN)C(N)=O)[C@@H](C)CC (I: H-IK(Ile)IK([Ile-X2])FKK-NH2 / II: H-IK(Ile)IK([Ile-X2])F; amide I:6-II:C)	> 32 µg/mL	79 µg/mL (≈ 29.3 µM)	> 32 µg/mL	8 µg/mL (≈ 2.97 µM)	> 100 µg/mL	> 32 µg/mL	> 32 µg/mL	> 32 µg/mL	> 32 µg/mL	> 32 µg/mL	16 µg/mL (≈ 5.94 µM)	4.4 µg/mL (≈ 1.63 µM)	> 32 µg/mL	> 32 µg/mL	> 32 µg/mL	> 32 µg/mL	> 32 µg/mL	> 32 µg/mL	24 µg/mL (≈ 8.91 µM)	32 µg/mL (≈ 11.9 µM)	MIC (Pseudomonas aeruginosa [19]): > 32 µg/mL; MHC [20]: 20 µg/mL
CC1(C)S[C@@H]2[C@H](NC(=O)[C@H](N)c3ccccc3)C(=O)N2[C@H]1C(=O)O [AMPICILLIN]				> 32 µg/mL					1 µg/mL (≈ 2.86 µM)		> 32 µg/mL			> 32 µg/mL		1.5 µg/mL (≈ 4.29 µM)		0.13 µg/mL (≈ 0.372 µM)	4 µg/mL (≈ 11.4 µM)	1 µg/mL (≈ 2.86 µM)	
CC(C)C[C@H](NC(=O)[C@H](CCCCNC(=O)[C@@H](N)CC(C)C)NC(=O)[C@@H](N)CC(C)C)C(=O)NCCCC[C@H](NC(=O)[C@H](CC(C)C)NC(=O)[C@H](CCCCNC(=O)[C@@H](N)CC(C)C)NC(=O)[C@@H](N)CC(C)C)C(=O)N[C@@H](Cc1ccccc1)C(=O)NCCCC[C@H](NC(=O)[C@H](Cc1ccccc1)NC(=O)[C@H](CCCCNC(=O)[C@H](CC(C)C)NC(=O)[C@H](CCCCNC(=O)[C@@H](N)CC(C)C)NC(=O)[C@@H](N)CC(C)C)NC(=O)[C@H](CC(C)C)NC(=O)[C@H](CCCCNC(=O)[C@@H](N)CC(C)C)NC(=O)[C@@H](N)CC(C)C)C(=O)N[C@@H](CCCCN)C(N)=O	> 32 µg/mL	21 µg/mL (≈ 7.79 µM)	> 32 µg/mL	32 µg/mL (≈ 11.9 µM)	> 72 µg/mL	> 32 µg/mL	> 32 µg/mL	> 32 µg/mL	> 32 µg/mL	> 32 µg/mL	12 µg/mL (≈ 4.45 µM)	2 µg/mL (≈ 0.742 µM)	> 32 µg/mL	32 µg/mL (≈ 11.9 µM)	> 32 µg/mL	24 µg/mL (≈ 8.91 µM)	> 32 µg/mL	24 µg/mL (≈ 8.91 µM)	≥ 32 µg/mL	32 µg/mL (≈ 11.9 µM)	Activity (Lipid bilayer): Active; MIC (Pseudomonas aeruginosa [19]): > 32 µg/mL; MHC [20]: 310 µg/mL
